According to ChEMBL document CHEMBL4265880, “Discovery of 3-Cyano- N-(3-(1-isobutyrylpiperidin-4-yl)-1-methyl-4-(trifluoromethyl)-1 H-pyrrolo[2,3- b]pyridin-5-yl)benzamide: A Potent, Selective, and Orally Bioavailable Retinoic Acid Receptor-Related Orphan Receptor C2 Inverse Agonist” (J Med Chem, 2018):
In brackets after ≈: the same amount, converted by molar mass.

Legend:
[1] = Lipophilicity, log D of the compound at pH 7.4 by RP-HPLC analysis; assay type: physicochemical; details: buffer
[2] = Volume of distribution at steady state in Beagle dog at 1 mg/kg, iv or 3 mg/kg, po via gavage by LC-MS/MS analysis; assay type: ADME, organism-based, Canis lupus familiaris; details: in vivo, read-out: Vdss
[3] = Apparent permeability in RRCK cells; assay type: ADME, cell-based, Canis lupus familiaris, MDCKII-LE; details: dog, MDCK
[4] = Oral bioavailability in Balb/c mouse at 30 mg/kg administered via spray-dried dispersion by LC-MS/MS analysis; assay type: ADME, organism-based; details: in vivo
[5] = Volume of distribution at steady state in Balb/c mouse at 1 mg/kg, iv or 30 mg/kg, po via gavage by LC-MS/MS analysis; assay type: ADME, organism-based; details: in vivo, read-out: Vdss
[6] = Oral bioavailability in Wistar Han rat at 3 mg/kg administered via spray-dried dispersion by LC-MS/MS analysis; assay type: ADME, organism-based; details: in vivo
[7] = Oral bioavailability in Wistar Han rat at 3 mg/kg administered as crystalline solid by LC-MS/MS analysis; assay type: ADME, organism-based; details: in vivo
[8] = Volume of distribution at steady state in Wistar Han rat at 1 mg/kg, iv or 3 mg/kg, po via gavage by LC-MS/MS analysis; assay type: ADME, organism-based; details: in vivo, read-out: Vdss
[9] = Oral bioavailability in Beagle dog at 3 mg/kg administered via spray-dried dispersion measured over 24 hrs by LC-MS/MS analysis; assay type: ADME, organism-based, Canis lupus familiaris; details: in vivo
[10] = Thermodynamic solubility of the compound at pH 6.5; assay type: physicochemical; details: buffer, read-out: Therm_solubility

Row | SMILES | logD [1] | further results
1 | CC(C)C(=O)N1CCC(c2cn(C)c3ncc(NC(=O)c4cccc(C#N)c4)c(C(C)C)c23)CC1 | 2.6 | 
2 | CC(=O)N1CCC(c2cn(C)c3ncc(NC(=O)c4cccc(C#N)c4)c(C)c23)CC1 | 1.6 | 
3 | CC(C)C(=O)N1CCC(c2cn(C)c3ncc(NC(=O)c4cccc(C#N)c4)c(C(F)(F)F)c23)CC1 | 3.7 | Vd [2]: 1.5 L/kg; Papp [3]: 13.2 ×10⁻⁶ cm/s; bioavailability [4]: 30%; Vd [5]: 0.8 L/kg; bioavailability [6]: 83%; bioavailability [7]: 21%; Vd [8]: 1.4 L/kg; bioavailability [9]: 73%; solubility thermodynamic [10]: 1 µM (≈ 0.498 µg/mL)
4 | Cc1c(NC(=O)c2cccc(C#N)c2)cnc2c1c(C1CCN(C(=O)C3CCOC3)CC1)cn2C (centres undefined) | 1.6 | 
5 | Cc1c(NC(=O)c2cccc(C#N)c2)cnc2c1c(C1CCN(C(=O)C3CCC3)CC1)cn2C | 2.6 | 
6 | Cn1cc(C2CCN(C(=O)C3CCCC3)CC2)c2cc(NC(=O)c3cccc(C#N)c3)cnc21 | 3.8 | 
7 | Cn1cc(C2CCN(C(=O)C3CCCC3)CC2)c2cc(NC(=O)c3cc(C#N)ccn3)cnc21 | 3.7 | 
8 | Cc1c(NC(=O)c2ccc(Cl)c(C#N)c2)cnc2c1c(C1CCN(C(=O)C(C)C)CC1)cn2C | 3.6 | 
9 | Cc1c(NC(=O)c2cccc(C#N)c2)cnc2c1c(C1CCN(C(=O)C3CCCCC3)CC1)cn2C | 3.9 | 
10 | Cc1c(NC(=O)c2cccc(C#N)c2)cnc2c1c(C1CCN(C(=O)CC3CC3)CC1)cn2C | 2.4 | 
11 | CCC(=O)N1CCC(c2cn(C)c3ncc(NC(=O)c4cccc(C#N)c4)c(C)c23)CC1 | 2 | 
12 | Cc1c(NC(=O)c2ccc(F)c(C#N)c2)cnc2c1c(C1CCN(C(=O)C(C)C)CC1)cn2C | 2.3 | 
13 | Cn1cc(C2CCN(C(=O)C3CCCC3)CC2)c2nc(NC(=O)c3cc(C#N)ccn3)ccc21 | 4.2 | 
14 | Cc1noc(C)c1C(=O)N1CCC(c2cn(C)c3ncc(NC(=O)c4cccc(C#N)c4)c(C)c23)CC1 | 2 | 
15 | Cn1cc(C2CCN(C(=O)C3CCCC3)CC2)c2cc(NC(=O)c3cc(C#N)ccn3)ccc21 | 4.3 | 
16 | Cc1c(NC(=O)c2cccc(C#N)c2)cnc2c1c(C1CCN(C(=O)C3CCCC3)CC1)cn2C | 2.9 | 
17 | COc1ccc(C(=O)Nc2cnc3c(c(C4CCN(C(=O)C(C)C)CC4)cn3C)c2C)cc1C#N | 2.4 | 
18 | COc1c(NC(=O)c2cccc(C#N)c2)cnc2c1c(C1CCN(C(=O)C(C)C)CC1)cn2C | 2 | 
19 | Cc1c(NC(=O)c2cccc(C#N)c2)ccc2c1c(C1CCN(C(=O)C3CCCC3)CC1)cn2C | 4 | 
20 | Cc1cccc(F)c1C(=O)N1CCC(c2cn(C)c3ncc(NC(=O)c4cccc(C#N)c4)c(C)c23)CC1 | 3.1 | 
21 | Cc1ccc(C(=O)Nc2cnc3c(c(C4CCN(C(=O)C(C)C)CC4)cn3C)c2C)cc1C#N | 2.3 | 
22 | Cn1cc(C2CCN(C(=O)C3CCCC3)CC2)c2cc(NC(=O)c3cccc(C#N)c3)ccc21 | 4.4 | 
23 | Cc1c(NC(=O)c2cccc(C#N)c2)cnc2c1c(C1CCN(C(=O)CC(C)C)CC1)cn2C | 2.5 | 
24 | Cc1c(NC(=O)c2cccc(C#N)c2)cnc2c1c(C1CCN(C(=O)C3CC3)CC1)cn2C | 2.3 | 
25 | Cc1c(NC(=O)c2cccc(C#N)c2)cnc2c1c(C1CCN(C(=O)C(C)C)CC1)cn2C | 2 | 
